Data as given in patent publication US20150018311A1, “THERAPEUTIC BORON-CONTAINING COMPOUNDS” (priority 2012, published 2015).

Columns and labels:
Assay in all cases: Growth in liquid media in presence of test compound
Type in all cases: cell-based
[1] = tested on: Mycobacterium tuberculosis (H37Rv)
[2] = tested on: Staphylococcus aureus (ATCC 25923)
Text: (§1) Test organisms used were the bacterial strains Escherichia coli (ATCC 25922), Pseudomonas aeruginosa (ATCC 27853), Staphylococcus aureus (ATCC 25923), Streptococcus pyogenes (ATCC 19615), and Mycobacterium tuberculosis (H37Rv), and the yeast strain Candida albicans (ATCC 90028).
(§2) The liquid media used for growth were Luria-Bertani (Becton Dickinson, Sparks, Md.) and Mueller-Hinton (bio-Merieux, Paris, France) broths, but with Saburo medium for Candida and Middlebrook 7H9 medium (Difco) for mycobacteria.
(§3) The strains were grown at 37° C. and after suitable cell concentrations had been reached, 100 μL of each cell suspension was added to a tube with growth media and test compound. Cultivation of the bacteria was then carried out in the presence of each test compound at 37° C. and the tubes examined for visible growth. The compounds were tested at concentrations of either 500 mg/l, 50 mg/l or 5 mg/l. This assay was repeated twice.
(§4) Some compounds were only tested against some test organisms. It will be appreciated that the charge of these molecules will depend on the environment, some of the Examples are shown with a suitable counter ion, some without.

[3] = tested on: Pseudomonas aeruginosa (ATCC 27853)
Text: as §1, §2, §3, §4

[4] = tested on: Escherichia coli (ATCC 25922)
Text: as §1, §2, §3, §4

[5] = tested on: Streptococcus pyogenes (ATCC 19615)
Text: as §1, §2, §3, §4

[6] = tested on: Candida albicans (ATCC 90028)
Text: as §1, §2, §3, §4

Row | Compound | Growth in the presence of test compound, M. tuberculosis ([1]; 5 mg/L) | Growth in the presence of test compound, M. tuberculosis ([1]; 50 mg/L) | Growth in the presence of test compound, M. tuberculosis ([1]; 500 mg/L) | Growth in the presence of test compound, S. aureus ([2]; 5 mg/L) | Growth in the presence of test compound, S. aureus ([2]; 50 mg/L) | Growth in the presence of test compound, S. aureus ([2]; 500 mg/L) | Growth in the presence of test compound, P. aeruginosa ([3]; 5 mg/L) | Growth in the presence of test compound, P. aeruginosa ([3]; 50 mg/L) | Growth in the presence of test compound, P. aeruginosa ([3]; 500 mg/L) | Growth in the presence of test compound, E. coli ([4]; 5 mg/L) | Growth in the presence of test compound, E. coli ([4]; 50 mg/L) | Growth in the presence of test compound, E. coli ([4]; 500 mg/L) | Growth in the presence of test compound, S. pyogenes ([5]; 5 mg/L) | Growth in the presence of test compound, S. pyogenes ([5]; 50 mg/L) | Growth in the presence of test compound, S. pyogenes ([5]; 500 mg/L) | Growth in the presence of test compound, C. albicans ([6]; 5 mg/L) | Growth in the presence of test compound, C. albicans ([6]; 50 mg/L) | Growth in the presence of test compound, C. albicans ([6]; 500 mg/L)
1 | CC1(C)C2CC3OB(C(CNC(=O)C(N)CCCCN)Cc4ccc(OC(F)(F)F)cc4)OC3(C)C1C2.Cl.Cl (stereo not drawn) [Compound 53] | ± | − | − | + | + | + | + | + | − | + | + | + | + | + | − | + | + | −
2 | C[C@@H](B1OC2CC3CC(C3(C)C)[C@@]2(C)O1)[C@@H](Cc1ccccc1)NC(=O)[C@@H]1CCCN1 (stereo partly drawn) [Compound 29] | + | + | − | + | + | − | + | + | ± |  |  |  | + | + | − | + | + | ±
3 | CC1(C)C2CC3OB(CCNC(=O)[C@@H](N)CCCCN)O[C@]3(C)C1C2 (stereo partly drawn) [Compound 32] | + | + | − |  |  |  |  |  |  | + | + | ± |  |  |  | + | + | −
4 | CC1(C)C2CC3OB(CC(Cc4ccccc4)NC(=O)C(N)CCCNC(=N)N)OC3(C)C1C2 (stereo not drawn) [Compound 4] | + | − | − | + | + | − |  |  |  | + | + | − | + | + | − | + | + | −
5 | CC1(C)C2CC3OB([C@@H](CNC(=O)[C@@H](N)CCCCN)Cc4ccccc4)O[C@]3(C)C1C2 (stereo partly drawn) [Compound 9] | − | − | − | + | + | − | + | + | ± |  |  |  | + | + | − | + | + | −
